The results in this text go back to article PMC5471252, “Anti-leukemia activity of a Hsp70 inhibitor and its hybrid molecules” (Scientific Reports, 2017).

As a reminder, the IC50 is the concentration at which inhibition is half-maximal.

Data set [1] relates to caspase activity of HL-60 and K562 cells. As to the kind of experiment: Caspase activity assay with Ac-DEVD-pNA in cell lysates. The data set is classed as cell-based, human. The following applies: lysates of cells treated 24 h. As for the experimental part: Because Az inhibits the association of Hsp70 with Apaf-1, caspase associated proteolytic activities should increase in cells treated with Az. To determine whether this event occurs, caspase activities of HL-60 and K562 cells treated with Az were measured by using the colorimetric substrate, Ac-DEVD-pNA (pNA, p-nitroaniline). […] We also examined whether leukemia cells are protected from the effect of Az by ZVAD-FMK (benzyloxycarbonyl-Val-Ala-Asp(OMe) fluoromethyl ketone, a cell-permeable inhibitor of pan-caspases). HL-60 and K562 cells were pre-incubated with ZVAD-FMK for 3 h and subsequently exposed to Az.
HL-60 and K562 cells treated with each compound for 24 h were lysed in a buffer containing 50 mM HEPES (pH 7.4), 5 mM CHAPS and 5 mM DTT. Assay buffer containing 20 mM HEPES (pH 7.4), 0.01% CHAPS, 5 mM DTT and 2 mM EDTA was added to cell lysates. Caspase activity was measured in the absence or presence of acetyl-DEVD-pNA (200 μM) (Sigma-Aldrich) by using a microplate reader (monitored at 405 nm).

The test system of a further data set is THP-1 cells. As to the kind of experiment: MTT assay, cell viability of THP-1 cells. The following applies: Homo sapiens, 48 h, mean ± s.d., n = 3, read-out: IC50 values of compounds for leukemia cells. The data set is classed as cell-based. Background: Tetrazolium dyes change colour on reduction, which living cells bring about.
A further data set relates to U937 cells. As to the kind of experiment: MTT assay, cell viability of U937 cells. In kind it is cell-based. The following applies: Homo sapiens, U-937, 48 h, mean ± s.d., n = 3, read-out: IC50 values of compounds for leukemia cells.
For another data set, the system named is KG-1 cells. As to the kind of experiment: MTT assay, cell viability of KG-1 cells. In kind it is cell-based. The following applies: Homo sapiens, 48 h, mean ± s.d., n = 3, read-out: IC50 values of compounds for leukemia cells.
For data set [2], the system named is HL-60 and K562 cells. As to the kind of experiment: Flow cytometry, JC-1 mitochondrial membrane potential. In kind it is cell-based, human. The following applies: 24 h; 10 µM Az or 4 µM Az-O3-GD. As for the experimental part:
(§1) To determine whether Az promotes leukemia cell death via apoptosis, acute leukemia HL-60 and chronic leukemia K562 cells were independently incubated with Az. The treated cells were then exposed to a mixed solution of fluorescein-annexin V and propidium iodide (PI) and flow cytometry analysis was conducted. […] The size of the treated cells was also assessed by using flow cytometry. […] We also investigated if the mitochondrial membrane potential in cells treated with Az is disrupted. To test this possibility, HL-60 and K562 cells were exposed to Az and subsequently stained with a membrane potential sensitive JC-1 probe. […] This serves as another evidence for apoptosis induced by Az.
JC-1 staining: HL-60 and K562 cells were treated with each compound and then with 2.5 μg/mL JC-1 (Anaspec) in PBS for 15 min. Flow cytometry was conducted with a BD FACSVerse™ instrument (the red fluorescence signal: λex = 550 nm, λem = 600 nm; the green fluorescence signal: λex = 485 nm, λem = 535 nm) and the data were analyzed using a FlowJo™ software.
On the technique in general: Flow cytometry measures light scatter and fluorescence of single cells or particles in a stream.

Data set [3] deals with human leukemia cells (HL-60, KG-1, THP-1, U937, Jurkat and K562 cells). As to the kind of experiment: MTT assay, all tested leukemia cells (summary statements). The following applies: all tested leukemia cells, MTT, compared with Az, GD and imatinib. The procedure: To assess anti-leukemia activity of Az, several human leukemia cells (HL-60 cells, acute myeloid leukemia; Jurkat cells, acute T-lymphocytic leukemia; KG-1 cells, acute myeloid leukemia; U937 cells, acute myeloid leukemia; THP-1 cells, acute monocytic leukemia; K562 cells, chronic myeloid leukemia) were incubated with Az for 48 h. […] An MTT assay was then performed to measure cell viabilities.
Cells were exposed to each compound (a HCl salt form) at various concentrations for indicated time periods (24 or 48 h) in culture media. MTT assays were conducted according to known procedures. The absorbance at 570 nm was determined by employing a microplate reader (TECAN, Infinite® 200 PRO).

For data set [4], the system named is HL-60 and K562 cells. As to the kind of experiment: Flow cytometry, fluorescein-annexin V and PI staining. In kind it is cell-based, human. The note with it: 24 h; 10 µM Az, 10 µM GD or 4 µM Az-O3-GD. The procedure: as §1
HL-60 and K562 cells were incubated with each compound for 24 h in culture media. Cells were re-suspended with 500 μL binding buffer (10 mM HEPES, […] and 2.5 mM CaCl2, pH 7.5) and then incubated with the FITC-annexin V apoptosis detection kit with PI according to the protocol provided by the manufacturer. Flow cytometry was carried out by using a BD FACSVerse™ instrument (BD Biosciences) and the data were analyzed by using a FlowJo™ software (BD Biosciences).

For a further data set, the system named is Jurkat cells. As to the kind of experiment: MTT assay, cell viability of Jurkat cells. In kind it is cell-based. The following applies: Homo sapiens, 48 h, mean ± s.d., n = 3, read-out: IC50 values of compounds for leukemia cells.
The test system of a further data set is K562 cells. As to the kind of experiment: MTT assay, cell viability of K562 cells. The note with it: Homo sapiens, 48 h, mean ± s.d., n = 3, read-out: IC50 values of compounds for leukemia cells. The data set is classed as cell-based.
Data set [5] deals with AIF translocation in HL-60 and K562 cells. As to the kind of experiment: AIF translocation to the nucleus (western blot, immunocytochemistry). In kind it is cell-based, human. The note with it: 24 h; 2 μM for Az-O3-GD. From the text: Apoptosis-inducing factor (AIF) is known to be translocated from the cytosol to the nucleus during caspase-independent apoptosis (Supplementary Fig. S8b)[39]. In addition, it is also known that Hsp70 interacts with AIF directly and this interacting event results in blocking translocation of AIF to the nucleus and, in turn, prevents caspase-independent apoptosis. Because of these phenomena, we tested if Az has an influence on AIF-mediated caspase-independent apoptosis. To probe this issue, HL-60 and K562 cells were exposed to Az and the levels of AIF in the cytosolic and nuclear fractions were then determined. AIF translocation to the nucleus was not observed in Az-treated cells, based on western blot analysis (Fig. 4d). Additional evidence to support this conclusion was obtained from immunocytochemical analysis of leukemia cells treated with Az (Fig. 4d).
(§2) Western blot analysis. […] peroxidase-conjugated goat anti-rabbit IgG (1:2000, Santa Cruz Bio Technology) and goat anti-mouse IgG (1:2000, Santa Cruz Bio Technology) were used as the secondary antibodies. The blots were developed by using a West-ZOL® plus Western Blot Detection System (Intron Biotechnology Inc., South Korea). Western blot signals were analyzed by using a G:BOX Chemi Fluorescent & Chemiluminescent Imaging System.
Immunocytochemistry. […] Cell images were analyzed using the ZEN 2011 software.
For orientation: Immunoblotting shows a protein as a band on a membrane.

The test system of data set [6] is Hsp70 level in HL-60 and K562 cells. As to the kind of experiment: Western blot of Hsp70 and Hsp90 levels. The note with it: cells treated 24 h. The data set is classed as cell-based, human. As for the experimental part:
Because Az-O3-GD promotes caspase activation in leukemia cells, it was anticipated that procaspase-9, procaspase-3 and PARP would be cleaved in treated cells. To test this possibility, HL-60 and K562 cells were exposed to Az-O3-GD, along with Az and GD as controls and western blot analysis was then carried out. […] Although Az-O3-GD upregulates Hsp70, the presence of the Hsp70 inhibitor in this hybrid causes its cytotoxicity against leukemia cells to be higher than that of GD. Finally, we examined the effect of Az-O3-GD on AIF-mediated caspase-independent apoptosis. To this end, HL-60 and K562 cells were incubated with Az-O3-GD for 24 h.
as §2

Another data set has as its system HL-60 cells. As to the kind of experiment: MTT assay, cell viability of HL-60 cells. The data set is classed as cell-based. The note with it: Homo sapiens, 48 h, mean ± s.d., n = 3, read-out: IC50 values of compounds for leukemia cells.

In the case of `COc1ccc(-c2nc(-c3cc(C(F)(F)F)cc(C(F)(F)F)c3)n(Cc3ccc(C(=O)NCCCOCCOCCOCCCNC4=C5CC(C)CC(OC)C(O)C(C)C=C(C)C(OC(N)=O)C(OC)C=CC=C(C)C(=O)NC(=CC4=O)C5=O)cc3)c2-c2ccc(OC)cc2)cc1` (stereo not drawn) [Az-O3-GD], in data set [1], the “caspase activity of treated cells” value is on record as “increase”. For the same compound, the IC50 is 620 ± 270 nM with THP-1 cells; 1120 ± 440 nM in the data set with U937 cells; 1310 ± 300 nM in the data set on KG-1 cells; 570 ± 180 nM in the data set on Jurkat cells; 720 ± 260 nM in the data set on K562 cells; 740 ± 270 nM in the data set on HL-60 cells. Also, the “mitochondrial membrane potential, JC-1 red fluorescence” value in the data set with HL-60 and K562 cells [2] is reported as “significant decrease in the intensity of red fluorescence from JC-1”. Moreover, the “cytotoxicity relative to the individual inhibitors” value in [3] is reported as “greatly enhanced cytotoxicities”. Besides, the “apoptosis, annexin V binding and PI uptake” value in the data set on HL-60 and K562 cells [4] is “induces apoptosis”. The “AIF translocation to the nucleus” value in data set [5] is “does not elicit the translocation of AIF to the nucleus”. The “translational level of Hsp70” value in [6] is “upregulation of Hsp70”.
